# ChEMBL document CHEMBL4831527, “Structure-Based Design and Discovery of Pyridyl-Bearing Fused Bicyclic HIV-1 Inhibitors: Synthesis, Biological Characterization, and Molecular Modeling Studies” (J Med Chem, 2021)
# Active and inactive are the calls of the source. The rule behind the calls is not given here.
# Experiments:
# [1] = tested on: Human immunodeficiency virus 1; assay: Antiviral activity against HIV1 3B infected in human MT4 cells assessed as protection against virus-induced cytopathic effect incubated for 5 days by MTT assay; assay type: functional, organism-based; details: Human immunodeficiency virus 1, 3B, MT4, 120 h
# [2] = tested on: Human immunodeficiency virus 1; assay: Antiviral activity against HIV1 RES056 infected in human MT4 cells assessed as protection against virus-induced cytopathic effect incubated for 5 days by MTT assay; assay type: functional, organism-based; details: Human immunodeficiency virus 1, RES056, MT4, 120 h
# [3] = Cytotoxicity against mock-infected human MT4 cells assessed as reduction in cell viability measured after 5 days by MTT assay; assay type: cell-based; details: time 5 day
# [4] = Selectivity index, ratio of CC50 for mock-infected human MT4 cells to EC50 for HIV1 3B infected in human MT4 cells; assay type: toxicity, cell-based; details: MT4 cells (mock-infected and HIV1 3B infected), read-out: Ratio CC50/EC50
# [5] = Selectivity index, ratio of CC50 for mock-infected human MT4 cells to EC50 for HIV1 RES056 infected in human MT4 cells; assay type: toxicity, cell-based; details: MT4 cells (mock-infected and HIV1 RES056 infected), read-out: Ratio CC50/EC50
# [6] = tested on: Human immunodeficiency virus 1; assay: Potency index, ratio of EFV EC50 to test compound EC50 for antiviral activity against HIV1 RES056 infected in human MT4 cells; assay type: functional
# [7] = tested on: Human immunodeficiency virus 1; assay: Antiviral activity against HIV1 harboring reverse transcriptase E138K mutant infected in human MT4 cells assessed as protection against virus-induced cytopathic effect incubated for 5 days by MTT assay; assay type: functional, organism-based; details: Human immunodeficiency virus 1, MT4, 120 h
# [8] = tested on: Human immunodeficiency virus 1; assay: Antiviral activity against HIV1 harboring reverse transcriptase K103N mutant infected in human MT4 cells assessed as protection against virus-induced cytopathic effect incubated for 5 days by MTT assay; assay type: functional, organism-based; details: Human immunodeficiency virus 1, MT4, 120 h
# [9] = tested on: Human immunodeficiency virus 1; assay: Antiviral activity against HIV1 harboring reverse transcriptase Y181C mutant infected in human MT4 cells assessed as protection against virus-induced cytopathic effect incubated for 5 days by MTT assay; assay type: functional, organism-based; details: Human immunodeficiency virus 1, MT4, 120 h
# [10] = tested on: Human immunodeficiency virus 1; assay: Antiviral activity against HIV1 harboring reverse transcriptase Y188L mutant infected in human MT4 cells assessed as protection against virus-induced cytopathic effect incubated for 5 days by MTT assay; assay type: functional, organism-based; details: Human immunodeficiency virus 1, MT4, 120 h
# [11] = tested on: Human immunodeficiency virus 1; assay: Antiviral activity against HIV1 harboring reverse transcriptase L100I mutant infected in human MT4 cells assessed as protection against virus-induced cytopathic effect incubated for 5 days by MTT assay; assay type: functional, organism-based; details: Human immunodeficiency virus 1, MT4, 120 h
# [12] = tested on: Human immunodeficiency virus 1; assay: Antiviral activity against HIV1 harboring reverse transcriptase F227L/V106A double mutant infected in human MT4 cells assessed as protection against virus-induced cytopathic effect incubated for 5 days by MTT assay; assay type: functional, organism-based; details: Human immunodeficiency virus 1, MT4, 120 h
# [13] = target: Human immunodeficiency virus type 1 reverse transcriptase (Human immunodeficiency virus 1, UniProt Q72547); assay: Inhibition of wild type HIV1 p66/p51 reverse transcriptase using poly(rA) as template, oligo(dT)16 as primer and RNA/DNA as substrate measured after 40 mins by PICOGreen-dye based spectrofluorimetry analysis
# [14] = Half life in human liver microsomes at 1 uM in presence of NADPH by LC-MS/MS analysis; assay type: ADME, Microsome
# [15] = tested on: Human immunodeficiency virus 2; assay: Antiviral activity against HIV2 ROD infected in human MT4 cells assessed as protection against virus-induced cytopathogenicity after 5 days by MTT assay; assay type: functional, organism-based; details: time 5.0 day
# [16] = in vitro; details: human, liver microsomes
Structure (SMILES),EC50 [1] [nM],EC50 [2] [nM],CC50 at 120 h [3] [nM],selectivity ratio [4],selectivity ratio [5],Ratio EC50 [6],EC50 [7] [nM],EC50 [8] [nM],EC50 [9] [nM],EC50 [10] [nM],EC50 [11] [nM],EC50 [12] [nM],IC50 [13] [nM],half-life at 1 µM [14] [min],Activity [15],"CLint scaled at 1 h, 1 µM [16] [mL/min/kg]"
Cc1cc(/C=C/C#N)cc(C)c1Oc1nc(Nc2ccc(C#N)cc2)nn2cccc12,12.6,61.1,5000,395,81,2.4,> 41300,4.8,19.7,> 41300,7.8,> 41300,43,43.3,inactive,28.8
Cc1cc(C#N)cc(C)c1Oc1nc(Nc2ccc(C#N)nc2)nc2c1ccn2COCC[Si](C)(C)C,253,> 117000,117000,463,< 1,,,,,,,,7400,,inactive,
Cc1cc(/C=C/C#N)cc(C)c1Oc1nc(Nc2ccc(CC#N)cc2)nc2c1CCCC2,17.7,433,48300,2730,112,,> 25800,12.9,140,> 25800,49,> 25800,49,,inactive,
Cc1cc(/C=C/C#N)cc(C)c1Nc1ccnc(Nc2ccc(C#N)cc2)n1 [RILPIVIRINE],,,,,,,,,,,,,,12.8,,97.6
Cc1cc(C#N)cc(C)c1Oc1nc(Nc2ccc(OC(F)(F)F)cc2)nc2c1CCCC2,80.6,> 275000,> 275000,> 3410,,,,,,,,,61000,,inactive,
Cn1c(Cn2ccc(C(F)(F)F)c(Oc3cc(Cl)cc(C#N)c3)c2=O)n[nH]c1=O [DORAVIRINE],13,15,> 294000,> 21900,> 20100,,,,,,,,,,,
Cc1cc(C#N)cc(C)c1Oc1nc(Nc2ccc(C#N)cc2)nc(N)c1Br [ETRAVIRINE],4.8,473,> 4600,,,,15.2,3.9,213,27.2,7.4,25.7,,,,
Cc1cc(C#N)cc(C)c1Oc1nc(Nc2ccc(C#N)cc2)nc2c1ccn2CO,6.1,128,830,137,6,,> 707,3.7,31.2,> 707,20.1,> 707,40,,inactive,
O=C(O)Cc1ccccc1Nc1c(Cl)cccc1Cl [DICLOFENAC],,,,,,,,,,,,,,,,310
Cc1cc(C)c(Oc2nc(Nc3ccc(C#N)cc3)nc3c2CCCC3)c(C)c1,38.6,805,6800,177,8,,171,57,232,191,96.9,524,241,,inactive,
Cc1cc(C#N)cc(C)c1Oc1nc(Nc2ccc(C#N)nc2)nc2c1ccn2CO,46.9,> 138000,≥ 138000,≥ 2950,,,,,,,,,47,,inactive,
Cc1cc(C=O)cc(C)c1Oc1nc(Nc2ccc(C#N)cc2)nc2c1CCCC2,35.1,1200,5900,169,5,,146,63.7,748,663,492,2240,55,,inactive,
Cc1cc(/C=C/C(N)=O)cc(C)c1Oc1nc(Nc2ccc(C#N)cc2)nn2cccc12,36.3,5850,57600,1590,10,,,,,,,,53,,inactive,
Cc1cc(C#N)cc(C)c1Oc1nc(Nc2ccc(C#N)nc2)nn2cccc12,7,1220,69100,9830,57,,> 69100,11.9,171,> 69100,204,> 69100,14,,inactive,
C[C@]12CC[C@H]3[C@@H](CCC4=CC(=O)CC[C@@]43C)[C@@H]1CC[C@@H]2O [TESTOSTERONE],,,,,,,,,,,,,,,,126
Cc1cc(C#N)cc(C)c1Oc1nc(Nc2ccc(C#N)cc2)nc2c1CCCC2,10.6,,,298,,,19,7.1,52.7,24.5,12.8,58.4,52,,inactive,
Cc1cc(C#N)cc(C)c1Oc1nc(Nc2ccc(C#N)cc2)nc2c1ccn2COCC[Si](C)(C)C,820,> 2960,3000,4,< 1,,,,,,,,171,,inactive,
Cc1cc(C#N)cc(C)c1Oc1nc(Nc2ccc(CC#N)cc2)nc2c1CCCC2,11.7,1020,4500,385,4,,> 4520,9.9,283,> 4520,68.5,> 4520,53,,inactive,
Cc1cc(C#N)cc(C)c1Oc1nc(Nc2ccc(S(C)(=O)=O)cc2)nc2c1CCCC2,56.7,> 279000,> 279000,> 4920,,,,,,,,,69,,inactive,
Cc1cc(C=O)cc(C)c1Oc1nc(Nc2ccc(C#N)nc2)nc2c1CCCC2,35.4,9210,20900,590,2,,,,,,,,43,,inactive,
Cc1cc(C#N)cc(C)c1Oc1nc(Nc2ccc(C#N)cn2)nc2c1ccn2COCC[Si](C)(C)C,> 93900,> 93900,93900,< 1,< 1,,,,,,,,31000,,inactive,
O=C1Nc2ccc(Cl)cc2[C@@](C#CC2CC2)(C(F)(F)F)O1 [EFAVIRENZ],4.5,144,> 6300,> 1390,> 44,,6,,,244,51.6,274,,,,
Cc1cc(C#N)cc(C)c1Oc1nc(Nc2ccc(C#N)nc2)nc2c1CCCC2,1070,> 12600,244000,228,< 19,,,,,,,,50,,inactive,
Cc1cc(C=O)cc(C)c1Oc1nc(Nc2ccc(C#N)cn2)nc2c1CCCC2,234,> 35300,293000,1250,58,,,,,,,,58,,inactive,
